In patent US20080214622A1, “Substituted Triazole Derivatives As Oxytocin Antagonists” (priority 2005, published 2008):

The compounds below were run against T1, Oxytocin Receptor (Homo sapiens, UniProt P30559) (assay: Oxytocin Receptor Beta-lactamase assay (as detailed in WO 2004/020414)). Conditions: read-out: Ki value (Oxytocin antagonist activity).
T1 sequence (P30559 1-389): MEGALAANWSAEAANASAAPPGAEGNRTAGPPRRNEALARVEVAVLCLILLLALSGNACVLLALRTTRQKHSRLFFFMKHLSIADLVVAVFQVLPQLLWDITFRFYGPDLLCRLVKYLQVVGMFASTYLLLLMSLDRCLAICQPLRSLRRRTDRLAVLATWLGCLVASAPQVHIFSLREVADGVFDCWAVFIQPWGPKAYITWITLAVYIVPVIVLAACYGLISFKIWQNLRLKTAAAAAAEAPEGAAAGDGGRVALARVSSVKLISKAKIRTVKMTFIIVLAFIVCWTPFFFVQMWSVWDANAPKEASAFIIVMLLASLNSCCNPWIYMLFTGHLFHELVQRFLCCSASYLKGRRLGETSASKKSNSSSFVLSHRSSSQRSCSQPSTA
Format: cell-based
Text: A suitable assay for determining the Oxytocin antagonist activity of a compound is detailed in International Patent Application WO 2004/020414.

In order of rising Ki:
1. COc1ccc(-n2c(C)nnc2-c2ccc(-c3ccccc3OC)cc2)c(OCCN2CCOCC2)n1 [Example 2, 4-[2-({6-Methoxy-3-[3-(2′-methoxybiphenyl-4-yl)-5-methyl-4H-1,2,4-triazol-4-yl]pyridin-2-yl}oxy)ethyl]morpholine]  0.0112 µM
2. COc1ccc(-n2c(Cn3nccn3)nnc2-c2ccc(-c3ccccc3OC)cc2)cc1 [Example 25]  0.0117 µM
3. COCCOc1nc(OC)ccc1-n1c(C)nnc1-c1ccc(-c2ccccc2OC)cc1 [Example 32, 6-Methoxy-3-[3-(2′-methoxybiphenyl-4-yl)-5-methyl-4H-1,2,4-triazol-4-yl]-2-(2-methoxyethoxy)pyridine]  0.0138 µM
4. COc1ccc(-n2c(C)nnc2-c2ccc(-c3ccccc3OC)cc2OC)cc1 [Example 10, 3-(2′,3-Dimethoxybiphenyl-4-yl)-4-(4-methoxyphenyl)-5-methyl-4H-1,2,4-triazole]  0.0146 µM
